# Results published in patent US6756368B1, “Use of cobalt chelates for treating or preventing virus infection” (The Trustees of Columbia University in the City of New York, priority 1999, dated 2004).
# “Also recorded” adds a separate entry of the source.
# Key:
# [1] = system: HSV-1; test: Accumulation of α4 and α27 mRNAs (RT-PCR); assay type: cell-based, HSV-1 Glasgow strain 17
# Method: Vero cell monolayers were either mock infected or infected. The accumulation of α4 and α27 mRNAs from infected cells was determined as previously described [Lium and Silverstein 1997] by coupled reverse transcription (RT) and polymerase chain reaction (PCR) using the commercial kit, EZ rTth RNA PCR kit (Perkin-Elmer) as specified by the manufacturer with modifications. The primers used during RT were 4-2 and ICP27-L-RT [Lium and Silverstein 1997]. Following RT, secondary primers were added for PCR (4-1 and ICP27-U-RT) (55). These primers result in amplification of a 100 basepair (bp) fragment and a 220 bp fragment from the α4 and α27 genes, respectively.
# The failure to detect virus specified polypeptides of any kinetic class in cells infected in the presence of CTC96 led us to ask if virus transcripts accumulated under these conditions. Accordingly, virus was incubated with 50 μg/ml of drug for 10 min and then either washed out by dilution and used to infect cells or used directly to infect cells. At 2 and 4 hr post infection cells were harvested and total infected cell RNA was prepared for analysis by RT-PCR for the presence of transcripts from the ∝4 and ∝27 genes. […] When these studies are carried out to as long as 8 hr pi there is still no detectable accumulation of virus-specified transcripts (data not shown). […] (FIG. 15).
# [2] = system: HSV-1; assay type: cell-based, HSV-1 Glasgow strain 17; details: CTC-96 added at 16 hpi, virus harvested 4 hours later
# [3] = system: adenovirus serotype 2 (Ad2); test: Fluorescence focus assay, Ad2 on A549 cells; assay type: cell-based; details: for Percent inhibition, Adenovirus: Ad2, A549
# Method: A549 or 293 cell monolayers were infected with Ad2 or Ad-CMV-null at 0.1 fluorescence focus units (FFUs) per cell for 2 h in 2% BCS DMEM in the presence and absence of 50 μg/ml CTC-96. At 29 h postinfection the plates were washed twice with PBS and fixed with methanol for 4 min at room temperature. Cells were washed twice with PBS, incubated in 500 μl 1:100 rabbit polyclonal anti-adenovirus serum in PBS for 30 min at room temperature and washed with PBS. Plates were then incubated in 500 μl 1:40 goat anti-rabbit IgG conjugated FITC in PBS. Foci were visualized using a Leitz Dialux microscope with an optical system for the selective visualization of FITC and then counted.
# A549s were plated on 35 mm dishes at 8×10^5 cell/plate in 10% FBS DMEM
# added 19.25 μl stock to 50 μl total of each respective media (+/− 0, 5, 25 or 50 μg/ml CTC96)
# After 2 h-added 3 ml of each respective media
# Incubated @37° C. for 28 h (total)
# [4] = 50 μg/ml of CTC-96; cited from earlier work
# [5] = system: Vero cells; test: Cytotoxic effect on Vero cell monolayers
# [6] = system: HSV-1; test: Adsorption assay, 3H labeled HSV-1 binding to Vero cells; details: 50 μg/ml, 4° C., MOI 100
smiles,measurement,setting,value
CC(/C=C(/C)[O-])=NCCN=C(C)/C=C(/C)[O-].Cc1ncc[nH]1.Cc1ncc[nH]1.[Br-].[Co+3] [CTC-96],time in which the action of the drug occurs,[1],less than 10 min
same,accumulation of α4 and α27 mRNAs,"[1]; 50 μg/ml present from onset of infection, 2 and 4 hr pi",neither the accumulation of α4 nor α27 mRNAs were detectable; also recorded: inhibits α4 and α27 gene expression
same,accumulation of α4 and α27 mRNAs,"[1]; 50 μg/ml present from onset of infection, 2 and 4 hr pi, listed as CTC96",no accumulation
same,accumulation of α4 and α27 mRNAs,"[1]; virus exposed to drug 10 min, drug then diluted/removed",began to accumulate
same,accumulation of α4 and α27 mRNAs,"[1]; virus exposed to drug 10 min, drug then diluted/removed, listed as CTC96",A small amount of immediate early gene RNA is detected
same,virus titers,[2],negligible drop in virus titers
same,average foci per field,"[3]; 25 μg/ml, Plate 1",26 = 3.9
same,total foci counted,"[3]; 25 μg/ml, Plate 1",102
same,average foci per field,"[3]; 25 μg/ml, Plate 2",? = 3.1
same,total foci counted,"[3]; 25 μg/ml, Plate 2",109
same,average foci per field,"[3]; 50 μg/ml, Plate 1",47 = 1.6
same,total foci counted,"[3]; 50 μg/ml, Plate 1",73
same,average foci per field,"[3]; 50 μg/ml, Plate 2",46 = 1.5
same,total foci counted,"[3]; 50 μg/ml, Plate 2",70
same,% Inhibition,"[3]; Adenovirus (2), A549, 50 μg/ml of CTC-96, fluorescence focus assay",36%
same,"Percent inhibition, Adenovirus",[3]; CTC-96 25 μg/ml,18%
same,"Percent inhibition, Adenovirus",[3]; CTC-96 50 μg/ml,64%
same,toxicity in animal models,[4],does not appear to be toxic
same,effect on the cell monolayer,"[5]; 50 μg/ml, after two days of incubation",severely affected
same,cytotoxicity on Vero cell monolayers,[5]; prolonged exposure (several days) to 50 μg/ml,cytotoxic effects; also recorded: cytotoxicity
same,adsorption (binding) of HSV-1 to Vero cell monolayers,[6],no effect
